Data set [1] relates to Doxorubicin-induced cardiotoxicity (DIC) model. Description: Echocardiography of cardiac function (EF, FS) in the DIC model. Type of data set: in vivo, C57BL/6 male mice. As to the method: (§1) Circulation. 2016; 133:1668-1687”. 8-week-old C57BL/6 male mice were injected with 5 mg/kg of doxorubicin (DOX) or normal saline via the tail vein, and the administration was performed once a week for four consecutive weeks. Four weeks after the last administration, the mice were subjected to echocardiography to detect the cardiac function, and myocardial tissues of the mice were taken to detect the NAD^+ content. Mice were intraperitoneally injected with the same volume of saline as that of the experimental group once a day, and the duration cycle was the same as that of the DIC model. After administration, mice were subjected to echocardiography to detect the cardiac function, and myocardial tissues were taken from mice to detect NAD^+ content. CD38 inhibitor 78c was dissolved with DMSO. Mice were injected intraperitoneally with 10 mg/kg CD38 inhibitor 78c at 3 hours before doxorubicin injection in the DIC model. 78c was administered once a day until the endpoint of the DIC model. At the end of the model, echocardiography was performed on the mice to detect the cardiac function of the mice, and myocardial tissues were taken from the mice to detect NAD^+ content. NAD was dissolved in saline. Mice were injected intraperitoneally with 50 mg/kg NAD at 3 hours before doxorubicin injection in the DIC model. NAD was administered once a day, which lasted until the endpoint of the DIC model. At the end of the model, mice were subjected to echocardiography to detect cardiac function, and myocardial tissues were taken from mice to detect NAD^+ content. CD38 inhibitor 78c was dissolved in DMSO. Mice were injected intraperitoneally with 50 mg/kg NAD and 10 mg/kg CD38 inhibitor 78c at 3 hours before doxorubicin injection in the DIC model. The CD38 inhibitor 78c was administered once a day, which lasted until the endpoint of the DIC model. At the end of the model, mice were subjected to echocardiography to detect cardiac function, and myocardial tissues were taken from mice to detect NAD^+ content.

The test system is the same in data set [2]. Description: NAD+ content of cardiac tissues in the doxorubicin-induced cardiotoxicity (DIC) model. The class given is in vivo, C57BL/6 male mice. The settings on record: FIG. 2. As to the method: as §1, with “At the end of the model, mice were subjected to echocardiography to detect cardiac function, and myocardial tissues were taken from mice to detect NAD^+ content. CD38 inhibitor 78c was dissolved in DMSO. Mice were injected intraperitoneally with 50 mg/kg NAD and 10 mg/kg CD38 inhibitor 78c at 3 hours before doxorubicin injection in the DIC model. The CD38 inhibitor 78c was administered once a day, which lasted until the endpoint of the DIC model. At the end of the model, mice were subjected to echocardiography to detect cardiac function, and myocardial tissues were taken from mice to detect NAD^+ content.” left out

The target of data set [3] is T1, CD38 (Homo sapiens, UniProt P28907).
T1 sequence (P28907 1-300): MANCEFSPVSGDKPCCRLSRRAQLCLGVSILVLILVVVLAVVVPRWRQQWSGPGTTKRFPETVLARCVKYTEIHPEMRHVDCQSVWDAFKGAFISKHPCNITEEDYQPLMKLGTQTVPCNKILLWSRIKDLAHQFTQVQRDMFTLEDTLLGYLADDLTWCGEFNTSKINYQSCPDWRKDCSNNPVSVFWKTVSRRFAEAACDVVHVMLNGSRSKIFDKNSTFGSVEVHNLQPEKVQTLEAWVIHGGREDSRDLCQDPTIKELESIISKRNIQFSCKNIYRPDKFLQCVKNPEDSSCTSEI
The settings on record: from the literature, Cell Metabolism 2018; cited from earlier work.

Data set [4] deals with CD38. Description: CD38 expression in mouse heart tissues after doxorubicin treatment. The class given is in vivo, mice. As to conditions: after doxorubicin treatment (5 mg/kg via tail vein, once a week for four weeks); mainly in CD31-positive endothelial cell region; FIG. 1. As to the method:
8-week-old C57BL/6 male mice were injected with 5 mg/kg of doxorubicin (DOX) or normal saline via the tail vein, and the administration was performed once a week for four consecutive weeks. Four weeks after the last administration, the mice were subjected to echocardiography to detect the cardiac function, and myocardial tissues of the mice were taken to detect the NAD^+ content.

In the case of `COCCOC1CCC(Nc2cc(=O)n(C)c3ccc(-c4cncs4)cc23)CC1` (stereo not shown) [compound 78c], in data set [1] (DOX-treated mice, i.p. once a day from 3 hours before doxorubicin, NAD 50 mg/kg, 78c 10 mg/kg, FIGS. 3a and 3b), the “cardiac function (EF, FS)” value is listed as “improved cardiac function”. Moreover, the “cardiac NAD+ content” value in data set [2] (DOX-treated mice, i.p. once a day from 3 hours before doxorubicin, NAD 50 mg/kg, 78c 10 mg/kg) is on record as “modestly increased”. For the same compound, the “inhibitory activity against CD38” value at CD38 [3] is “has been demonstrated”.
For `COc1cccc2c1C(=O)c1c(O)c3c(c(O)c1C2=O)C[C@@](O)(C(=O)CO)C[C@@H]3O[C@H]1C[C@H](N)[C@H](O)[C@H](C)O1` [doxorubicin], the “ejection fraction (EF) of the mouse heart” value in data set [1] (doxorubicin 5 mg/kg via tail vein once a week for four weeks, echocardiography, FIG. 3a) was “significantly reduced”. Besides, the “fractional shortening (FS) of the mouse heart” value in data set [1] (doxorubicin 5 mg/kg via tail vein once a week for four weeks, echocardiography, FIG. 3b) is “significantly reduced”. In addition, the “NAD+ content of the cardiac tissues” value in data set [2] (doxorubicin 5 mg/kg via tail vein once a week for four weeks, compared with the control group) is “significant decrease”. In addition, the “CD38 expression in mouse heart tissues” value with CD38 [4] is “significantly increased”.

(Values after US20240307430A1, “PHARMACEUTICAL COMPOSITION CONTAINING NICOTINAMIDE ADENINE DINUCLEOTIDE (NAD) AND CD38 INHIBITOR AND APPLICATION THEREOF” (HEFEI KNATURE BIO-PHARM CO., LTD., priority 2021, published 2024).)
